{"source": "patent US11851381B2", "about": "“Application of farnesene in preparing plant-derived urease inhibitor” (priority 2022, dated 2023)", "key": {"[1]": {"system": "soil urease-generating bacteria", "assay": "Inhibition of soil urease-generating bacteria (bacterial ureC gene copy number by quantitative PCR)", "conditions": "urea 200 mg N kg^-1 dry soil, farnesene 0.5%, 2% of pure nitrogen", "method": "(§1) (1) Pre-culture of soil: air-dried soil (brown soil) is filtered by a 2 mm sieve and then placed in a culture dish, distilled water accounting for 15% of the weight of the dried soil is added, after the dried soil is uniformly and thoroughly immersed with water, the soil is pre-cultured for 2 weeks in a constant temperature incubator at 25° C. to restore the biological activity of the soil, and ventilation and constant moisture are kept in the pre-culture period, thereby obtaining the pre-cultured soil.\n(2) The pre-cultured soil is weighed; urea is added according to a concentration of 200 mg N kg^−1 of dry soil; the farnesene is added according to concentrations of pure nitrogen of 0 (U), 0.5% (U+0.5%), 1% (U+1%) and 2% (U+2%); and at the same time, the pre-cultured soil without urea and farnescene is used as control treatment, and 5 treatments are carried out and repeated for 4 times. In each treatment, the required urea and farnesene are dissolved in a certain amount of deionized water according to a required amount, then the solution is uniformly mixed with the pre-cultured soil that is equivalent to 50 g of air-dried soil by a vacuum method, the water content of the soil is enabled to reach 60% of the field water holding capacity (WHC), and finally the solution is placed in a 150 mL centrifugal pipe with a cover. […]"}, "[2]": {"biological_target": "T1, Canavalia ensiformis urease (Canavalia ensiformis, UniProt P07374)", "T1 construct": "purchased Aladdin Company", "T1 sequence (P07374 whole entry, looked up)": "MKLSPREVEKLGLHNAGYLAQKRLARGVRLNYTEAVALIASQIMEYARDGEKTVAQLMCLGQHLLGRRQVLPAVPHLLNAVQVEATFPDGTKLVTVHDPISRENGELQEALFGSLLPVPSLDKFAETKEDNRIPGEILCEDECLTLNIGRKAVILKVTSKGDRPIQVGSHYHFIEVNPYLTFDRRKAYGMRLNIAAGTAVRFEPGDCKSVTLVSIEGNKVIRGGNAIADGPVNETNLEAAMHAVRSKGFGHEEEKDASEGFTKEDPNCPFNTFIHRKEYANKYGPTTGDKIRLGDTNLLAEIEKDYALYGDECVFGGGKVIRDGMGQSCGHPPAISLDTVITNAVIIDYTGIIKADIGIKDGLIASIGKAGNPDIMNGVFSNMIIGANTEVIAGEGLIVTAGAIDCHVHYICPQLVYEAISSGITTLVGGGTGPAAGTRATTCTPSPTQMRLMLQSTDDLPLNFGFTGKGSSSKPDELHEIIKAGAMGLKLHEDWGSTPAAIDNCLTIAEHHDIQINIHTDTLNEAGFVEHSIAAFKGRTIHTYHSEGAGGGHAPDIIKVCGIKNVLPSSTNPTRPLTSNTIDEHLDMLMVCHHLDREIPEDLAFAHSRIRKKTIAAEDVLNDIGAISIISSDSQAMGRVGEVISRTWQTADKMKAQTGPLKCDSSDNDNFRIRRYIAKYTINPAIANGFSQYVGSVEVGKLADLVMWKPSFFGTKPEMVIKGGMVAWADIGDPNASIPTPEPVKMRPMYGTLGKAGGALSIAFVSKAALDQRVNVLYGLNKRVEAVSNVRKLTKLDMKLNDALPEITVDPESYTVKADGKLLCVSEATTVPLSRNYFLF", "assay_type": "biochemical", "conditions": "incubated 20 min at 37° C., HEPES pH 7.5; unit inferred; read-out: median inhibitory concentration (IC50) for inhibiting the activity of Canavalia ensiformis urease", "description": "Acetohydroxamic acid is weighed, and mixed with 20 mM of HEPES buffer solution (with pH of 7.5) to prepare an acetohydroxamic acid solution of 0.1 μM, 0.5 μM, 1 μM, 3 μM, 5 μM, 10 μM, 20 μM, 40 μM, 60 μM and 80 μM, and the solution is cold stored in a brown bottle in a refrigerator at 4° C. for standby use;\nCanavalia ensiformis urease is weighed, and dissolved in 20 mM of HEPES buffer solution (with pH of 7.5) to prepare the Canavalia ensiformis urease solution with a concentration of 10 U/mL, and the prepared solution is cold stored in the refrigerator at 4° C. for standby use. […]\nA. 50 μL of the above prepared farnesene solution with different concentrations is collected, added with 100 μL of Canavalia ensiformis urease solution respectively, and uniformly mixed to obtain mixed solutions, and the mixed solutions are incubated for 20 min at 37° C.; 100 μL of urea solution is added for light avoidance reaction for 20 min at a room temperature; the Berthelot developing solution A is added and uniformly mixed, and the Berthelot developing solution B is added for development for 10 min to obtain an incubation solution; and 250 μL of incubation solution is absorbed onto a 96-well plate, an OD absolute value at 595 nm is determined by a microplate reader, and three times of test are carried in parallel for each concentration. […]"}, "corns": {"system": "corns", "assay": "Pot experiment: combined application of farnesene and urea on growth of corns", "assay_type": "in vivo, corn", "conditions": "potted corns; for Increase of dry weight / Yield increase: versus control without farnesene", "from_the_text": "Soil required for pot experiment is brown soil collected from Shenyang. 13 g of nitrogen phosphorus potassium fertilizer is used as base fertilizer to be applied in all layers according to a ratio of 26-10-12; and the fertilizer with farnescene and the fertilizer without farnescene are used as control, and the application amount is 0.5%, 1% and 5% of a pure nitrogen content in the fertilizer. Nitrogen fertilizer for test is urea, phosphorus fertilizer is calcium superphosphate, and potassium fertilizer is potassium sulfate. Each treatment is repeated for 5 times. The pretreated soil (filtered by a 5 mm sieve to remove stone pieces, roots, etc.) that is equivalent to 16 kg of air-dried oil is laid on square thick plastic paper with an edge length of 2 m, then the required fertilizer and inhibitor (if necessary) that are uniformly mixed in advance are applied uniformly to the soil, the paper is folded for multiple times by a diagonal folding method, in this period, it is necessary to lay the soil on the paper and then fold the paper, finally the soil is sufficiently and uniformly mixed with the fertilizer and inhibitor, the obtained mixture is transferred into a plastic pot (with a diameter of 28 cm and a height of 34 cm), and finally irrigation is carried out to make the water content of the soil reach 60% of the maximal field water holding capacity. Finally, a height about 5 cm is reserved between the soil surface and the top end of the pot. Three corn seeds are sowed in each pot in a sowing depth of 5 cm, and after the emergence (about 15 days), thinning is carried out to make each pot have one corn. Finally, all potted corns are carried onto a four-wheeled platform lorry and finally transferred into a net house. When in rainy days, the potted corns are transferred into a shed. The corns are watered manually every day in a growth period so as to maintain the soil moisture. The planting density is about 4000 corns per Mu, and a dry weight and yield of the corn are determined in autumn."}, "soil urease": {"system": "soil urease", "assay": "Inhibition of soil urease activity in incubated brown soil", "assay_type": "biochemical", "method": "as §1, with “incubator at a constant temperature of 25° C.” for “incubator at 25° C.”, “the pre-culture period.” for “the pre-culture period, thereby obtaining the pre-cultured soil.”\n(2) The pre-cultured soil is weighed, and added with DMSO solutions of farnesene and acetohydroxamic acid respectively, the concentrations of the farnesene and acetohydroxamic acid are 50 mg/kg (calculated by the dried soil) respectively, and a farnesene-soil mixture and an acetohydroxamic acid-soil mixture are obtained. 5 g of farnesece-soil mixture and 5 g of acetohydroxamic acid-soil mixture are weighed respectively and placed into glass test tubes (length 15 cm×diameter 15 mm), then 5 mL of distilled water is added respectively into the test tubes to make the soil located below a liquid surface, the mixtures in the test tubes are shaken by a vortex shaker and uniformly mixed; and at the same time, the pre-cultured soil without the inhibitor is used as control treatment (CK) and cultured in the constant temperature incubator at a constant temperature of 25° C., and sampling is carried out respectively on the 1st day, the 7th day, 14th day and 28th day after the culture (water is supplemented every day according to a weight method so as to keep a total weight of the test tube constant) for determination of urease activity. […]"}, "[3]": {"conditions": "farnesene 0.5% of pure nitrogen content in the fertilizer"}, "[4]": {"conditions": "farnesene 0.5% of pure nitrogen content"}, "[5]": {"conditions": "farnesene 1% of pure nitrogen content in the fertilizer"}, "[6]": {"conditions": "farnesene 1% of pure nitrogen content"}, "[7]": {"conditions": "farnesene 5% of pure nitrogen content in the fertilizer"}, "[8]": {"conditions": "farnesene 5% of pure nitrogen content"}}, "data": [{"substance": "farnesene", "values": [{"measurement": "duration of the inhibition effect on urease-generating bacteria", "setting": "[1]", "value": 14, "unit": "days"}, {"measurement": "inhibition of the proliferation of urease-generating bacteria (copy number of bacterial ureC genes)", "setting": "[1]; 25° C.", "value": "can effectively inhibit the proliferation of the urease-generating bacteria"}, {"measurement": "IC50", "setting": "[2]", "value": "10.3 ± 0.25", "unit": "µM"}, {"measurement": "Dry weight", "setting": "corns; [3]", "value": 16006.3, "unit": "kg ha^−1"}, {"measurement": "Yield", "setting": "corns; [3]", "value": 8004.2, "unit": "kg ha^−1"}, {"measurement": "Increase of dry weight", "setting": "corns; [4]", "value": 4.1, "unit": "%"}, {"measurement": "Yield increase", "setting": "corns; [4]", "value": 4.5, "unit": "%"}, {"measurement": "Dry weight", "setting": "corns; [5]", "value": 16922.8, "unit": "kg ha^−1"}, {"measurement": "Yield", "setting": "corns; [5]", "value": 8521.3, "unit": "kg ha^−1"}, {"measurement": "Increase of dry weight", "setting": "corns; [6]", "value": 8.6, "unit": "%"}, {"measurement": "Yield increase", "setting": "corns; [6]", "value": 10.1, "unit": "%"}, {"measurement": "Dry weight", "setting": "corns; [7]", "value": 17371.5, "unit": "kg ha^−1"}, {"measurement": "Yield", "setting": "corns; [7]", "value": 8714.3, "unit": "kg ha^−1"}, {"measurement": "Increase of dry weight", "setting": "corns; [8]", "value": 10.2, "unit": "%"}, {"measurement": "Yield increase", "setting": "corns; [8]", "value": 12.2, "unit": "%"}, {"measurement": "duration of the inhibition effect on soil urease", "setting": "soil urease; 50 mg/kg dried soil, brown soil, 25° C.", "value": 14, "unit": "days"}, {"measurement": "inhibition of the activity of soil urease", "setting": "soil urease; 50 mg/kg dried soil, brown soil, 25° C., sampled day 1, 7, 14, 28", "value": "can effectively inhibit the activity of soil urease"}, {"measurement": "inhibition effect on soil urease compared with acetohydroxamic acid", "setting": "soil urease; both at 50 mg/kg dried soil", "value": "equivalent to that of the commercial inhibitor acetohydroxamic acid"}]}]}
